Results reported in US9073880B2, “2-(2-phenylethenyl) 1,3-benzodiazepine derivatives useful for the treatment of cancer” (Yissum Research Development Company of the Hebrew …, priority 2010, dated 2015).
pIC50: −log10 of the molar value.

What was measured:
Type in all cases: cell-based
[1] = tested on: human pancreatic cancer ASPC cells; test: Cell proliferation, ASPC (Example 4); details: compound in 2-hydroxypropyl-β-cyclodextrin
Method: (§1) Human ovary cancer A2780 cells lines were seeded at a density of 5000 cells/well, human melanoma A375 cells were plated at a density of 2,500 cells/well, human colon carcinoma HCT15 cells were plated at a density of 3,000 cells/well, human prostate carcinoma PC3 cells were plated at a density of 1,500 cells/well, human breast carcinoma MCF7 cells were plated at a density of 5,000 cells/well, human breast carcinoma MDA MB 468 cells were plated at a density of 6,000 cells/well, human myeloma U266, RPMI8226 and CAG cells were plated at a density of 10,000 cells/well. All cells were plated in 96-well plates in 90 μl growth medium containing 10% FCS, 100 units/ml penicillin and 100 μg/ml streptomycin. Compound 3 was added a day later in […] of 1% DMSO in DDW to obtain final concentrations of 0, 0.1, 0.3, 1, 3, and 10 μM. The final concentration of DMSO (0.1% DMSO) was kept constant in all samples. Following exposure of the cells to compound 3 for 72 hours at 37° C., adhered cells were fixed in 0.5% gluteraldehyde in medium for 10 min, washed three times with DDW, once with 0.1M sodium borate buffer pH 8.5 and stained with 1% methylene blue dissolved in 0.1M borate buffer solution for 60 min. Excess dye was washed out and cell-bound dye was eluted with 200 μl/well of 0.1M HCl. The optical density values were read at 630 nm in ELISA plate reader. Non-adhered cells were exposed to WST-1 reagent for 5 hours following 72 hours treatment with the inhibitors, and optical density values were read at 630 nm in ELISA plate reader. The data was analyzed in Microsoft Excel, using the vehicle control as 100% proliferation. The assays were performed in triplicates. The values of IC50 were derived from the dose-dependent growth curves obtained.
(§2) Cell proliferation assay was performed as described in Example 2. The following cell line were plated in 96-well plates in 90 μl growth medium containing 10% FCS, 100 units/ml penicillin and 100 μg/ml streptomycin: human ovary cancer A2780 cells (4500 cells/well), human melanoma A375 (1500 cells/well) and YUMAC (2500 cells/well) cells, human colon carcinoma HCT15 (3000 cells/well) and HCT116 (2000 cells/well) cells, human prostate carcinoma PC3 (3000 cells/well), PC3MM2 (3500 cells/well) and DU145 (300 cells/well) cells, human hepatocarcinoma HepG2 (3000 cells/well), human Ewing sarcoma SK-ES-1 (4,500 cells/well), human glioblastoma U138MG (2,000 cells/well), human breast cancer T47D (4000 cells/well) and MDA-MB-468 (6000 cells/well) cells, human small cell lung carcinoma NCI-H1975 (5000 cells/well) cells, human osteosarcoma Saos-2 (5000 cells/well) cells, human pancreatic cancer ASPC (2500 cells/well) cells, human bladder carcinoma T24P (1000 cells/well) cells, human gastric cancer NCI-N87 (5000 cells/well) cells, human lymphoma KARPAS (5,000 cells/well) cells, human leukemia K562 (5,000 cells/well) cells and human multiple myeloma MM1S (10,000 cells/well), U266 (10,000 cells/well) and CAG (5,000 cells/well). Compounds 2-5 and 7-8 were added a day later in 10 μl of 0.7% 2-hydroxypropyl-β-cyclodextrin to obtain final concentrations of 0, 0.1, 0.3, 1, 3 and 10 μM.
(§3) Compounds 2-5 and 7-8 of the present invention were tested for their inhibitory potential in cell proliferation assay. […]

[2] = tested on: human lymphoma KARPAS cells; test: Cell proliferation, KARPAS (Example 4); details: compound in 2-hydroxypropyl-β-cyclodextrin
Method: as §1
(§4) Cell proliferation assay was performed as described in Example 2. […]

[3] = tested on: Human ovary cancer A2780 cells; test: Cell proliferation, A2780 (Example 4); details: compound in 2-hydroxypropyl-β-cyclodextrin
Method: as §1, §4

[4] = tested on: human multiple myeloma CAG cells; test: Cell proliferation, CAG (Example 4); details: compound in 2-hydroxypropyl-β-cyclodextrin
Method: as §1, §4

[5] = tested on: human colon carcinoma HCT116 cells; test: Cell proliferation, HCT116 (Example 4); details: HCT-116, HCT116, colon cancer, compound in 2-hydroxypropyl-β-cyclodextrin
Method: as §1, §2, §3

[6] = tested on: human multiple myeloma MM1S cells; test: Cell proliferation, MM1S (Example 4); details: MM1.S, compound in 2-hydroxypropyl-β-cyclodextrin
Method: as §1, §2
Compounds 2-5 and 7-8 of the present invention were tested for their inhibitory potential in cell proliferation assay. Human ovary cancer A2780 cells, human melanoma A375 and YUMAC cells, human colon carcinoma HCT15 and HCT116 cells, human prostate carcinoma PC3, PC3MM2 and DU145 cells, human hepatocarcinoma HepG2 cells, human Ewing sarcoma SK-ES-1 cells, human glioblastoma U138MG cells, human breast cancer T47D and MDA-MB-468 cells, human small cell lung carcinoma NCI-H1975 cells, human osteosarcoma Saos-2 cells, human pancreatic cancer ASPC cells, human bladder cancer T24P cells, human gastric cancer cells, human lymphoma KARPAS cells, human leukemia K562 cells, and human multiple myeloma MM1S, CAG and U266 cells, were exposed to increasing concentrations of compounds 2-5 and 7-8. […]

[7] = tested on: human Ewing sarcoma SK-ES-1 cells; test: Cell proliferation, SK-ES-1 (Example 4); details: SK-ES1, SK-ES-1, Ewing sarcoma, compound in 2-hydroxypropyl-β-cyclodextrin
Method: as §1, §4

[8] = tested on: human glioblastoma U138MG cells; test: Cell proliferation, U138MG (Example 4); details: U138-MG, compound in 2-hydroxypropyl-β-cyclodextrin
Method: as §1, §4

[9] = tested on: human melanoma YUMAC cells; test: Cell proliferation, YUMAC (Example 4); details: compound in 2-hydroxypropyl-β-cyclodextrin
Method: as §1, §2, §3

[10] = tested on: human prostate carcinoma PC3MM2 cells; test: Cell proliferation, PC3MM2 (Example 4); details: PC3MM2, prostate cancer, compound in 2-hydroxypropyl-β-cyclodextrin
Method: as §1, §4

human NCI-H1975 cells = test: Cell proliferation, NCI-H1975 (Example 4); details: NCI-H1975, SCLC, compound in 2-hydroxypropyl-β-cyclodextrin
Method: as §1, §4

[11] = tested on: human breast cancer T47D cells; test: Cell proliferation, T47D (Example 4); details: compound in 2-hydroxypropyl-β-cyclodextrin
Method: as §1, §4

[12] = tested on: human osteosarcoma Saos-2 cells; test: Cell proliferation, Saos-2 (Example 4); details: Saos-2, osteosarcoma, compound in 2-hydroxypropyl-β-cyclodextrin
Method: as §1, §4

[13] = tested on: human gastric cancer NCI-N87 cells; test: Cell proliferation, NCI-N87 (Example 4); details: compound in 2-hydroxypropyl-β-cyclodextrin
Method: as §1, §4

[14] = tested on: human bladder carcinoma T24P cells; test: Cell proliferation, T24P (Example 4); details: compound in 2-hydroxypropyl-β-cyclodextrin
Method: as §1, §4

[15] = tested on: human hepatocarcinoma HepG2 cells; test: Cell proliferation, HepG2 (Example 4); details: compound in 2-hydroxypropyl-β-cyclodextrin
Method: as §1, §4

[16] = tested on: human leukemia K562 cells; test: Cell proliferation, K562 (Example 4); details: compound in 2-hydroxypropyl-β-cyclodextrin
Method: as §1, §2, §3

[17] = tested on: human prostate carcinoma DU145 cells; test: Cell proliferation, DU145 (Example 4); details: DU-145, DU145, prostate cancer, compound in 2-hydroxypropyl-β-cyclodextrin
Method: as §1, §4

[18] = tested on: human breast cancer MDA-MB-468 cells; test: Cell proliferation, MDA-MB-468 (Example 4); details: MDA-MB-468, breast cancer, compound in 2-hydroxypropyl-β-cyclodextrin
Method: as §1, §4

| pIC50 [1] | pIC50 [2] | pIC50 [3] | pIC50 [4] | pIC50 [5] | pIC50 [6] | pIC50 [7] | pIC50 [8] | pIC50 [9] | pIC50 [10] | pIC50 (human NCI-H1975 cells) | pIC50 [11] | pIC50 [12] | pIC50 [13] | pIC50 [14] | pIC50 [15] | pIC50 [16] | pIC50 [17] | pIC50 [18] | SMILES |
| --- | --- | --- | --- | --- | --- | --- | --- | --- | --- | --- | --- | --- | --- | --- | --- | --- | --- | --- | --- |
| 4.73 | 5.82 | 6.52 | 5.52 | 6.15 | 6.15 | 6.70 | 6.52 | 6.30 | 6.05 | 5.96 | 6.15 | 5.70 | 5.32 | 5.49 | 5.57 | 6.05 | 5.70 | 5.66 | O=c1c(O)cc2cnc(/C=C/c3cc(O)c(O)c(I)c3)sc-2c1O [Compound 4] |
| – | – | 6.22 | – | – | 5.70 | – | – | – | – | – | – | – | – | – | 5.55 | – | – | 5.92 | N#C/C(=C\c1cc(O)c(O)c(I)c1)c1ncc2cc(O)c(=O)c(O)c-2s1 [Compound 2] |
| 4.75 | – | – | – | 6.10 | 6.30 | – | – | 6.30 | – | – | – | – | – | – | – | 6.10 | – | – | O=c1c(O)c2sc(/C=C/c3cc(O)c(O)c(Br)c3)ncc-2c(Br)c1O [Compound 8] |
| 4.88 | 5.74 | – | 5.31 | 5.85 | 6.70 | 6.70 | 6.10 | 6.30 | – | 5.59 | – | 5.57 | 5.08 | 5.35 | – | 5.74 | 5.64 | – | O=c1c(O)cc2cnc(/C=C/c3cc(O)c(O)cc3Br)sc-2c1O [Compound 7] |
